Experiment [1] addresses CDK2/Cyclin E1 (Homo sapiens, UniProt P24941). Nature of the experiment: ADP-Glo Luminescent Kinase Assay (CDK2/E1-37C). To be noted: 0.18 nM CDK2/Cyclin E1, 100 μM ATP, 1.5 μM Histone H1, 37° C., 60 min pre-incubation; read-out: ADPGLO (CDK2/E1-37C): IC50. The experiment is classed as biochemical. How it is done: Inhibition of CDK2/Cyclin E1 activity by the presence of small molecules was evaluated using ADP-Glo Luminescent Kinase Assay (Promega). Activated CDK2/Cyclin E1 was incubated with its substrate Histone H1 (SignalChem H10-54N) in the kinase reaction buffer (100 μM ATP, 50 mM HEPES pH 7.5, 10 mM MgCl2, 1 mM EDTA, 2 mM DTT, 0.01% Brij35, 0.5 mg/mL BSA). Luminescence was recorded with an Envision plate reader (PerkinElmer).
Dose titrations of inhibitors in 100% DMSO were combined with 0.36 nM CDK2/Cyclin E1 in reaction buffer. The mixtures were incubated for 60 minutes at 37° C. before the addition of ATP and Histone H1 substrate to initiate the kinase reaction. The final conditions were 0.18 nM CDK2/Cyclin E1, 100 μM ATP, and 1.5 μM Histone H1. The reactions were incubated at 37° C. for 90 minutes before being stopped with the addition of ADP-Glo reagent. This mixture was incubated at room temperature for 60 minutes before Kinase Detection Solution is added to generate luminescence. The stopped reactions were analyzed on an Envision plate reader. The conversion ratios were normalized to yield % activity, plotted against compound concentration, and fit to a four-parameter equation to determine the IC50 for each compound.
For orientation: ADP-Glo first removes unused ATP, then detects ADP through luciferase.

In experiment [2] the test system is Kuramochi cells. Description: IncuCyte cell proliferation assay. Conditions: Kuramochi cells labeled with mApple-H2B, cell count 0 to 72 hours, 20 μM top concentration; read-out: IncuCyte Kuramochi RB-WT: IC50. It is filed as cell-based. The protocol: IncuCyte® assay was used to measure the effect of disclosed compounds on cell proliferation. Fluorescent microscopy images of cells were taken immediately after compound treatment and 72 hours later. Image analysis software was used to obtain cell counts as a function of compound concentration. Kuramochi cells labeled with mApple-H2B were seeded on 384-well assay-ready plates. Plates were placed in an IncuCyte® (Sartorius) and scanned at 0 and 72 hours. IncuCyte® software was used to count the number of fluorescent nuclei in each well. The fold change in cell count from 0 to 72 hours in wells treated with increasing compounds concentrations (10 pts, 1/2 log dilution, 20 μM top concentration) was normalized to DMSO control wells. The normalized cell counts were fit with dose response curves and a […] was calculated.

SMILES strings stand for the structures. Some results are limits rather than exact numbers.

Regarding `C[C@@H](OCC12CCC(CC1)OC2)[C@H](NC(=O)[C@@H]1CN(C(=O)c2cnn(Cc3ccc(C(F)(F)F)cc3)c2)CC12CN(C(=O)C1(C(F)(F)F)CC1)C2)C(=O)N1CCC(c2ccc(C(=O)O)nc2)CC1` [Example I-92, 5-(1-(O-((2-oxabicyclo[2.2.2]octan-4-yl)methyl)-N—((S)-6-(1-(4-(trifluoromethyl)benzyl)-1H-pyrazole-4-carbonyl)-2-(1-(trifluoromethyl)cyclopropane-1-carbonyl)-2,6-diazaspiro[3.4]octane-8-carbonyl)-L-threonyl)piperidin-4-yl)picolinic acid], the IC50 is below 0.5 µM in experiment [1] and above 20 µM in experiment [2].
The like results for `C[C@@H](OCC12CCC(CC1)OC2)[C@H](NC(=O)[C@@H]1CN(C(=O)c2cnn(Cc3ccccc3)c2)CC12CN(C(=O)C1(C(F)(F)F)CC1)C2)C(=O)N1CCC(c2nccs2)CC1` [Example I-69, (S)—N-((2S,3R)-3-(2-oxabicyclo[2.2.2]octan-4-ylmethoxy)-1-oxo-1-(4-(thiazol-2-yl)piperidin-1-yl)butan-2-yl)-6-(1-benzyl-1H-pyrazole-4-carbonyl)-2-(1-(trifluoromethyl)cyclopropanecarbonyl)-2,6-diazaspiro[3.4]octane-8-carboxamide] were, in that order, below 0.5 µM and 0.5 to 5 µM.
The like results for `C[C@@H](OCC12CCC(CC1)OC2)[C@H](NC(=O)[C@@H]1CN(C(=O)c2cnc(O)cn2)CC12CN(C(=O)C1(C(F)(F)F)CC1)C2)C(=O)N1CCC(c2ccc(C(F)(F)F)cc2C(=O)O)CC1` [Example I-1, 2-(1-(O-((2-oxabicyclo[2.2.2]octan-4-yl)methyl)-N—((S)-6-(5-hydroxypyrazine-2-carbonyl)-2-(1-(trifluoromethyl)cyclopropane-1-carbonyl)-2,6-diazaspiro[3.4]octane-8-carbonyl)-L-threonyl)piperidin-4-yl)-5-(trifluoromethyl)benzoic acid] were, in that order, below 0.5 µM and above 20 µM.
Consider `C[C@@H](OCC1(C(F)(F)F)CC1)[C@H](NC(=O)[C@@H]1CN(C(=O)c2cnn(Cc3ccc(C(F)(F)F)cc3)c2)CC12CN(C(=O)C1(C(F)(F)F)CC1)C2)C(=O)N1CCC(c2nccs2)CC1` [Example I-80, (S)—N-((2S,3R)-1-oxo-1-(4-(thiazol-2-yl)piperidin-1-yl)-3-((1-(trifluoromethyl)cyclopropyl)methoxy)butan-2-yl)-6-(1-(4-(trifluoromethyl)benzyl)-1H-pyrazole-4-carbonyl)-2-(1-(trifluoromethyl)cyclopropane-1-carbonyl)-2,6-diazaspiro[3.4]octane-8-carboxamide], for which the IC50 in experiment [1] and in experiment [2] was 0.5 to 5 µM in each case.
Take `C[C@@H](OCC12CCC(CC1)OC2)[C@H](NC(=O)[C@@H]1CN(C(=O)c2cnn(Cc3ccc(C(F)(F)F)cc3C(=O)O)c2)CC12CN(C(=O)C1(C(F)(F)F)CC1)C2)C(=O)N1CCC(c2nccs2)CC1` [Example I-83, ((4-((S)-8-(((2S,3R)-3-((2-oxabicyclo[2.2.2]octan-4-yl)methoxy)-1-oxo-1-(4-(thiazol-2-yl)piperidin-1-yl)butan-2-yl)carbamoyl)-2-(1-(trifluoromethyl)cyclopropane-1-carbonyl)-2,6-diazaspiro[3.4]octane-6-carbonyl)-1H-pyrazol-1-yl)methyl)-5-(trifluoromethyl)benzoic acid]: the IC50 is below 0.5 µM in experiment [1] and above 20 µM in experiment [2].
Take `COC(=O)C(C)(C)Oc1ccc(C2CCN(C(=O)[C@@H](NC(=O)[C@@H]3CN(C(=O)c4cnn(Cc5ccc(C(F)(F)F)cc5)c4)CC34CN(C(=O)C3(C(F)(F)F)CC3)C4)[C@@H](C)OCC34CCC(CC3)OC4)CC2)cc1C(F)(F)F` [Example I-98]: the IC50 in experiment [1] is above 10 µM; in experiment [2] it was above 20 µM.
The like results for `CC1(C)C[C@@H]1C(=O)N1CC2(CN(C(=O)c3cncs3)C[C@H]2C(=O)N2CCC[C@H](N(CC(=O)NS(C)(=O)=O)CC3CCCCC3)C2)C1` [Example I-72, 2-((cyclohexylmethyl)((S)-1-((S)-2-((S)-2,2-dimethylcyclopropane-1-carbonyl)-6-(thiazole-5-carbonyl)-2,6-diazaspiro[3.4]octane-8-carbonyl)piperidin-3-yl)amino)-N-(methylsulfonyl)acetamide] were, in that order, above 10 µM and above 20 µM.
In the same order, the values of `C[C@@H](OCC12CCC(CC1)OC2)[C@@H](COC1CCOCC1)NC(=O)[C@@H]1CN(C(=O)c2cncs2)CC12CN(C(=O)C1(C(F)(F)F)CC1)C2` [Example I-113, (8S)—N-[(2R,3R)-3-{2-oxabicyclo[2.2.2]octan-4-ylmethoxy}-1-(oxan-4-yloxy)butan-2-yl]-6-(1,3-thiazole-5-carbonyl)-2-[1-(trifluoromethyl)cyclopropanecarbonyl]-2,6-diazaspiro[3.4]octane-8-carboxamide] are 0.5 to 5 µM and above 20 µM.
In the same order, the values of `C[C@@H](OCC12CCC(CC1)OC2)[C@H](NC(=O)[C@@H]1CN(C(=O)c2cnn(Cc3ccccc3C(=O)O)c2)CC12CN(C(=O)C1(C(F)(F)F)CC1)C2)C(=O)N1CCC2(CCNCC2)CC1` [Example I-60, 2-((4-((S)-8-(((2S,3R)-3-((2-oxabicyclo[2.2.2]octan-4-yl)methoxy)-1-oxo-1-(3,9-diazaspiro[5.5]undecan-3-yl)butan-2-yl)carbamoyl)-2-(1-(trifluoromethyl)cyclopropane-1-carbonyl)-2,6-diazaspiro[3.4]octane-6-carbonyl)-1H-pyrazol-1-yl)methyl)benzoic acid] are below 0.5 µM and 0.5 to 5 µM.
`CNC(=O)C(C)(C)CNC(=O)[C@@H](NC(=O)[C@@H]1CN(C(=O)c2cnn(Cc3ccccc3)c2)CC12CN(C(=O)[C@H]1CC1(C)C)C2)[C@@H](C)OCC1CCCCC1` [Example I-37, (S)-6-(1-benzyl-1H-pyrazole-4-carbonyl)-N-((2S,3R)-3-(cyclohexylmethoxy)-1-((2,2-dimethyl-3-(methylamino)-3-oxopropyl)amino)-1-oxobutan-2-yl)-2-((S)-2,2-dimethylcyclopropane-1-carbonyl)-2,6-diazaspiro[3.4]octane-8-carboxamide]: the IC50 is below 0.5 µM in experiment [1] and 5 to 20 µM in experiment [2].
Take `C[C@@H](OCC12CCC(CC1)OC2)[C@H](NC(=O)[C@@H]1CN(C(=O)c2cnn(Cc3ccc(C(F)(F)F)cc3)c2)CC12CN(C(=O)C1(C(F)(F)F)CC1)C2)C(=O)NCCC(=O)NS(C)(=O)=O` [Example I-73, (S)—N-((2S,3R)-3-((2-oxabicyclo[2.2.2]octan-4-yl)methoxy)-1-((3-(methylsulfonamido)-3-oxopropyl)amino)-1-oxobutan-2-yl)-6-(1-(4-(trifluoromethyl)benzyl)-1H-pyrazole-4-carbonyl)-2-(1-(trifluoromethyl)cyclopropane-1-carbonyl)-2,6-diazaspiro[3.4]octane-8-carboxamide]: the values for the IC50 in experiment [1] and in experiment [2] were 5 to 10 µM and above 20 µM, respectively.
`COC(=O)c1ccc([C@H](COCC23CCC(CC2)OC3)NC(=O)C2CN(C(=O)c3cnn(Cc4ccc(C#N)cc4)c3)CC23CN(C(=O)C2(C(F)(F)F)CC2)C3)cc1` (stereo partly drawn) [Example I-24, methyl 4-((1R)-2-((2-oxabicyclo[2.2.2]octan-4-yl)methoxy)-1-(6-(1-(4-cyanobenzyl)-1H-pyrazole-4-carbonyl)-2-(1-(trifluoromethyl)cyclopropane-1-carbonyl)-2,6-diazaspiro[3.4]octane-8-carboxamido)ethyl)benzoate]: the IC50 in experiment [1] is 5 to 10 µM; in experiment [2], above 20 µM.

Source of the values: patent publication US20260265262A1, “CDK2 INHIBITORS AND METHODS OF USING THE SAME” (Cedilla Therapeutics, Inc., priority 2022, published 2026).
